# Source: article PMC8218918, “The Cyr61 Is a Potential Target for Rotundifuran, a Natural Labdane-Type Diterpene from Vitex trifolia L., to Trigger Apoptosis of Cervical Cancer Cells” (Oxidative Medicine and Cellular Longevity, 2021)
# Molecular target: T1, Cyr61 (Homo sapiens, UniProt O00622)
# T1 construct: gene CCN1; Cyr61 protein (Mammalian, C-Fc)
# T1 sequence (O00622 25-381): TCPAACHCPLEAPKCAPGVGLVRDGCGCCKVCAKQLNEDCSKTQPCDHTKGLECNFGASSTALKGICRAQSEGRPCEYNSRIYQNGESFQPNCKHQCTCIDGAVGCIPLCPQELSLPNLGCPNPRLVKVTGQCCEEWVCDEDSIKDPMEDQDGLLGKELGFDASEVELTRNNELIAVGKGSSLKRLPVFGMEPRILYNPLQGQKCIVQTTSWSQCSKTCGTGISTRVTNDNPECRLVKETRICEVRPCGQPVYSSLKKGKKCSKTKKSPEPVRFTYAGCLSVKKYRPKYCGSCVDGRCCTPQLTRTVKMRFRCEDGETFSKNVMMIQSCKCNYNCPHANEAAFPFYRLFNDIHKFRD
# Assay: Microscale thermophoresis with RED-NHS labelled recombinant Cyr61; supported by DARTS and CETSA in HeLa cells
# Type: binding
smiles,measurement,value
"CC(=O)O[C@@H]1C[C@@H](C)[C@](O)(CCc2ccoc2)[C@@]2(C)CCCC(C)(C)[C@H]12 [RTF, Rotundifuran]",Kd,3.8 ± 4.5 µM
